Legend:
[1] = system: Utrophin; assay: Utrophin upregulation (mRNA fold change, RT-PCR) in differentiated C2C12 myoblast cells; type: cell-based, mouse; details: 24 hours; for fold change of utrophin: C2C12 myoblast cells differentiated seven days, 10 μM, FIG. 1
Experimental: C2C12 myoblast cells are seeded in the well plate with a growth medium (10% FBS and DMEM). After they reached 70% confluence, the cells are added to the differentiation medium (2% HS and DMEM) and differentiated for seven days. Stock solutions are prepared for Sitagliptin and other DPP-IV inhibitors viz., Melogliptin, Linagliptin, Vildagliptin, and Teneligliptin in DMSO. The cells are treated with a final concentration of 10 μM stock solution for 24 hours. RNA isolation is carried out using the Qiagen assay kit and quantified using NanodropRT-PCR for Utrophin Upregulation.
Using the same protocol for Example 1, C2C 12 myoblast cells are treated with sitagliptin for 24 hours. Ezutromid is a known utrophin up-regulator and used as a positive control. RNA isolation and RT-PCR are done to quantify the fold change in utrophin mRNA expression. FIG. 2 presents the fold change in mRNA expression of Utrophin on C2C12 mouse skeletal muscle myoblasts at 10 uM sitagliptin compared to 10 uM Ezutromid.

[2] = system: D2.mdx mice; assay: Treadmill test in D2.mdx mice; type: in vivo, mouse; details: 50 mg/kg p.o. q.d., 28 days, vs DMD-Control
Experimental: (§1) All the functional experimental parameters are evaluated in mdx background wild-type mice and in D2.mdx mice (D2.B10-DMD mdx/J mice procured from Jackson laboratories (Strain #013141), Bar Harbor, Maine (ME), USA 04609. The test item, Sitagliptin 50 mg/kg, is orally (p.o.) administered once daily (q.d.) at a dose volume of 10 mL/kg. Sitagliptin suspended in formulation containing 0.1% Tween 20 and 0.5% Carboxymethyl cellulose (CMC) is administered once daily for 28 days via the oral route. The wild-type control and mdx control groups received the vehicle (0.5% Carboxy methyl cellulose (CMC) containing 0.1% Tween 20) alone. Body weight of the study animals is recorded before the study (pre-dose) and twice weekly/daily throughout the study. Animals are also monitored for clinical signs, mortality, and morbidity. […] Muscle function is assessed through grip strength test using a Grip strength meter (Orchid Scientific, Model No.: […], India), hanging test, treadmill running, and rotarod test (Orchid Scientific, India) in response to Vehicle and Sitagliptin (50 mg/kg, p.o.) treatments. […] The efficacy of Sitagliptin is evaluated by comparing the functional test parameters and serum CK levels of the treated group with that of the mdx-control group in comparison to the basal value of Wild-type group. […]

[3] = system: D2.mdx mice; assay: Grip strength test in D2.mdx mice; type: in vivo, mouse; details: 50 mg/kg p.o. q.d., before treadmill stress, compared with wild type mice, FIG. 5A
Experimental: as §1

[4] = system: D2.mdx mice; assay: Hanging test in D2.mdx mice; type: in vivo, mouse; details: 50 mg/kg p.o. q.d., irrespective of treadmill stress, compared with wild type mice, FIGS. 6A and 6B
Experimental: as §1

[5] = system: D2.mdx mice; assay: Rotarod test in D2.mdx mice; type: in vivo, mouse; details: 50 mg/kg p.o. q.d., 28 days, FIG. 7
Experimental: as §1

[6] = system: D2.mdx mice; assay: Serum Creatinine Kinase level in D2.mdx mice after treadmill test; type: in vivo, mouse; details: 50 mg/kg p.o. q.d., 28 days, measured within 30 minutes after treadmill test, FIG. 8
Experimental: All the functional experimental parameters are evaluated in mdx background wild-type mice and in D2.mdx mice (D2.B10-DMD mdx/J mice procured from Jackson laboratories (Strain #013141), Bar Harbor, Maine (ME), USA 04609. The test item, Sitagliptin 50 mg/kg, is orally (p.o.) administered once daily (q.d.) at a dose volume of 10 mL/kg. Sitagliptin suspended in formulation containing 0.1% Tween 20 and 0.5% Carboxymethyl cellulose (CMC) is administered once daily for 28 days via the oral route. The wild-type control and mdx control groups received the vehicle (0.5% Carboxy methyl cellulose (CMC) containing 0.1% Tween 20) alone. […] All three group mice (Wild-type, DMD-Control & DMD-Sitagliptin) underwent functional tests at week 0 (Basal-Day 0), week 2 (Day 14) and at the end of the study (week 4 or Day 28). […] Blood samples are collected for Creatine kinase (CK) analysis 30 min after Treadmill functional test on Day 0, 14 & Day 28. The efficacy of Sitagliptin is evaluated by comparing the functional test parameters and serum CK levels of the treated group with that of the mdx-control group in comparison to the basal value of Wild-type group. […] Treadmill, grip strength, hanging, rotarod, and creatine kinase tests are recorded on day 0, day 14 and day 28. […] Serum Creatinine Kinase level is measured within 30 minutes after the mice are subjected to Treadmill tests.

[7] = system: D2.mdx mice; assay: 28th day summary of functional tests in D2.mdx mouse models; type: in vivo; details: 50 mg/kg p.o. q.d., day 28, vs DMD disease control mice, FIG. 9A-9F
Experimental: as §1

In the case of `N[C@@H](CC(=O)N1CCn2c(nnc2C(F)(F)F)C1)Cc1cc(F)c(F)cc1F` [Sitagliptin, (R)-4-oxo-4-[3-(trifluoromethyl)-5,6-dihydro[1,2,4]triazolo[4,3-a]pyrazin-7(8H)-yl]-1-(2,4,5-trifluorophenyl)butan-2-amine], the “fold change in mRNA expression of Utrophin compared to Ezutromid” value ([1]; C2C12 mouse skeletal muscle myoblasts, 10 uM sitagliptin vs 10 uM Ezutromid (positive control), FIG. 2) is reported as “superior upregulation of utrophin compared Ezutromid”, the “fold change of utrophin” value [1] is reported as “capable of upregulating utrophin levels” and the “distance travelled in 30 mins (treadmill)” value ([2]; FIG. 4A) is reported as “significant and sustained improvement”. The “time to exhaust (treadmill)” value ([2]; FIG. 4B) was “significant and sustained improvement”, the “normalized grip strength pre-treadmill” value [3] was “could grip as well as the wild type mice” and the “hanging latency pre- and post-treadmill” value [4] was “perform comparably with wild type mice”. The “latency to fall (rotarod)” value [5] was “sustained improvements in overall muscle coordination”, the “Serum Creatinine Kinase levels” value [6] was “significant reductions” and the “all functional parameters (distance travelled, time to exhaust, grip strength, hanging test), 28th day summary” value [7] was “robust improvement in all the functional parameters”.

`CC#CCn1c(N2CCC[C@@H](N)C2)nc2c1c(=O)n(Cc1nc(C)c3ccccc3n1)c(=O)n2C` [Linagliptin, 8-[(3R)-3-Aminopiperidin-1-yl]-7-(but-2-yn-1-yl)-3-methyl-1-[(4-methylquinazolin-2-yl)methyl]-3,7-dihydro-1H-purine-2,6-dione] was tested, and the “fold change of utrophin” value [1] was “capable of upregulating utrophin levels”.

With `Cc1cc(N2CCN([C@@H]3CN[C@H](C(=O)N4CCSC4)C3)CC2)n(-c2ccccc2)n1` [Teneligliptin, {(2S,4S)-4-[4-(3-Methyl-1-phenyl-1H-pyrazol-5-yl)-1-piperazinyl]-2-pyrrolidinyl}(1,3-thiazolidin-3-yl)methanone] the “fold change of utrophin” value [1] was “capable of upregulating utrophin levels”.

`N#C[C@@H]1CCCN1C(=O)CNC12CC3CC(CC(O)(C3)C1)C2` [Vildagliptin, (S)-1-[2-(3-Hydroxyadamantan-1-ylamino)acetyl]pyrrolidine-2-carbonitrile] was tested, and the “fold change of utrophin” value [1] was “capable of upregulating utrophin levels”.

`N#C[C@@H]1C[C@H](F)CN1C(=O)CN[C@@H]1CC[C@H](Cn2cncn2)C1` [Melogliptin, (2S,4S)-4-fluoro-1-[2-[[(1R,3S)-3-(1,2,4-triazol-1-ylmethyl)cyclopentyl]amino]acetyl]pyrrolidine-2 carbonitrile] was tested, and the “fold change of utrophin” value [1] was “capable of upregulating utrophin levels”.

— patent US20260284043A1, “COMPOUNDS FOR UPREGULATING UTROPHIN LEVELS IN MUSCLE CELLS AND METHOD OF APPLICATION THEREOF” (Peptris Technologies Private Limited, priority 2023, published 2026)
